Experimental data from publication PMC6733504, “Effects of flavoring compounds used in electronic cigarette refill liquids on endothelial and vascular function” (PLoS ONE, 2019).
Where two headings read alike, the source gives them in different places.

Key:
[1] = tested on: Porcine aortic endothelial cells (endogenous NO/cGMP pathway); experiment: A23187 (Ca2+ ionophore)-induced endothelial cGMP formation; type: cell-based
Procedure: Porcine aortic endothelial cells were isolated as described and cultured at 37°C, 5% CO2 for up to 3 passages in Dulbecco´s modified Eagle´s medium, containing 10% heat-inactivated fetal calf serum (FCS), 100 U/ml penicillin, 0.1 mg/ml streptomycin, and 1.25 μg/ml amphotericin B. Prior to experiments, cells were subcultured into 24-well plates (determination of cGMP formation) or 6-well plates (determination of L-citrulline formation).
Accumulation of intracellular 3',5'-cyclic GMP (cGMP) was determined as previously described. Briefly, endothelial cells were washed and preincubated with the compounds to be tested for 15 minutes at 37°C in 50 mM Tris buffer, pH 7.4, containing 100 mM NaCl, 5 mM KCl, 1 mM MgCl2, 2.5 mM CaCl2, 1 mM 3-isobutyl-1-methylxanthine, and 1 μM indomethacin. Reactions were started by addition of the Ca^2+ ionophore A 23187 (final concentration 1 μM) or the NO donor DEA/NO (final concentration 1 μM) and terminated after 4 minutes by removal of the incubation medium and addition of 0.01 M HCl. Within 1 h, intracellular cGMP was completely released into the supernatant and measured by radioimmunoassay.

[2] = Electrochemical determination of NO released from DEA/NO (NO scavenging); conditions: DEA/NO 1 μM
Procedure: Scavenging of NO by flavoring compounds was studied with a nitric oxide sensor (ISO-NOP, World Precision Instruments, Berlin, Germany), calibrated with acidified nitrite as described previously. Free NO radical was generated by incubation of DEA/NO (1 μM) in 1 ml of 100 mM phosphate buffer, pH 7.4, in the absence or presence of superoxide dismutase (2500 U/ml) at ambient temperature. At the peak concentration of NO, flavoring compounds (10 μl of DSMO stock solutions) were added, DMSO served as vehicle control.

[3] = Estimated plasma concentration upon inhalation of cinnamaldehyde-containing aerosol; design: species or system human; conditions: 10 ml of 6.9 mM liquid, plasma volume 3 liters, 100% bioavailability, no distribution, metabolism or clearance
[4] = rats, cited from earlier work
[5] = tested on: endothelial cells; experiment: LDH release (membrane integrity); conditions: 1 mM, 60 minutes; maximum = 1% Triton
Procedure: To test for membrane integrity, endothelial cells were assayed for release of lactate dehydrogenase (LDH) into the culture medium. Subsequent to incubation with flavoring compounds (1 mM each) for 1 hour, 20-μl aliquots of the culture media were mixed with 200 μl of reagent buffer (1 mM pyruvate and 0.1 mM NAD^+ in PBS). The decrease in light absorbance at 340 nm was monitored using a diode array spectrophotometer (Hewlett Packard 8452A). Maximum LDH release was determined by treating the cells with 1% Triton X-100.

O=C/C=C/c1ccccc1 [Cinnamaldehyde, (2E)-3-Phenylprop-2-enal]
Concentration inhibiting Ca2+-stimulated endothelial cGMP accumulation [1]: ≥ 0.3 mM | A23187-induced cGMP formation ([1]; flavoring 1 mM, 15 min preincubation, 1 μM A23187 for 4 min (Fig 1A)): about 35 % of controls | Effect on recorded NO signal (NO scavenging) ([2]; 1 mM): only moderate effects | Effect on recorded NO signal (NO scavenging) ([2]; 10 mM): pronounced decrease | Estimated plasma concentration [3]: 23 µM | Maximal plasma concentration ([4]; intravenous bolus 25 mg/kg): 20 µM | Maximal plasma concentration ([4]; oral 500 mg/kg): about 2 μM

C=CCc1ccc(O)c(OC)c1 [Eugenol, 2-Methoxy-4-(prop-2-en-1-yl)phenol]
LDH release (% of maximum) [5]: 0.4±0.23 % of maximum
